# Measured values taken from patent publication US6520981B1, “Significance of dosimetry in photodynamic therapy of injured arteries” (The General Hospital Corporation, priority 1999, dated 2003).
# “And” between values parts separate entries of the source, which are not always exact repeats. Equal entries are not always repeated. “Also recorded” adds a separate entry of the source. Where two headings read alike, the source gives them in different places. Marks after values point to notes of the source that are not given here.
# Columns and labels:
# versican mRNA = experiment: Digoxigenin in situ hybridization, versican; format: in vivo, rat; conditions: group PDT: MB 250 μg/ml, 660 nm, 100 J/cm^2; 2 weeks
# Excerpt: (§1) Digoxigenin in situ hybridization: Groups for in situ hybridization included PDT, BI, and the uninjured contralateral artery (n=3). […] Complementary DNAs (cDNAs) for type I procollagen and versican core protein were obtained as PCR fragments with each gene specific primers in which reverse primers contain T7 RNA polymerase recognition sequence at their 5′ end. Primer sequences were as follows. […] Digoxigenin-labeled antisense RNA probes were synthesized using a RNA labeling kit (Boehringer, Mannheim, Germany) according to the manufacturers' instruction and the in situ hybridization protocol used with modifications as previously described. Arterial sections were deparafinized in xylene and rehydrated through graded ethanol solutions, washed, and treated with 5 μg/ml proteinase K (Boehringer) for 30 min at 37° C. […] The hybridized probes were detected using an alkaline phosphatase conjugated anti-digoxigenin monoclonal antibody (Boehringer), and the colored product was visualized using Nitro Blue tetrazolium (Boehringer) and 5-bromo-4-chlor-indonyl-phosphate (Boehringer) as substrates. […] For statistical analysis, the median data point of every specimen was assessed and used to compare control versus PDT procollagen type I and veriscan gene expression.
# (§2) Statistical Evaluation: All values are expressed as a mean ± SD.
# procollagen type I mRNA = experiment: Digoxigenin in situ hybridization, procollagen type I; format: in vivo, rat; conditions: group PDT: MB 250 μg/ml, 660 nm, 100 J/cm^2; 2 weeks
# Excerpt: as §1, §2
# [1] = system: balloon-injured rat common carotid artery (intimal hyperplasia); experiment: PDT with locally delivered methylene blue in balloon-injured rat carotid artery: light microscopy and histomorphometry; format: in vivo; conditions: 2 weeks
# Method: Control animals included BI along and MB after BI alone. Arteries were analyzed after 2 weeks with morphometric evaluation (per group: n=6), and in situ hybridization for versican and pro-collagen type 1 gene expression (digitized image pixel analyses, n=9).
# Common carotid artery balloon injury was performed using a 2-French Fogarty embolectomy catheter (Baxter Health Care Corporation, Edwards Division, Irvine, Calif.). […] In brief, the balloon was introduced into the common carotid artery and inflated with 0.65 mL of air. […] The catheter was connected via a three-way stopcock to a Stratham transducer for synchronous pressure monitoring (HP 78205C, Hewlett Packard, Mass.). […] Under low ambient light, the drug was injected into the common carotid artery with 180 mm HG for 2 minutes. […] The external carotid artery was ligated, and the blood flow was restored.
# The animals were randomly assigned to the following 3 groups: Group PDT (n=6): balloon injury followed by application of photosensitizer and laser irradiation; Group PS (n=6): balloon injury followed by the photosensitizer MB application alone; Group BI (n=6): no treatment other than balloon-injury (BI) to the carotid artery.
# Photodynamic Therapy: Five minutes after local delivery of MB, the common carotid artery was externally irradiated with 660 nm laser light, emitted by a diode laser (Alto-Surgeon SRG-3, Polaroid, Cambridge, Mass.) to deliver a total fluence of 100 J/cm^2 at an irradiance of 100 mW/cm^2. The diode laser was coupled to a 600-μm optical fiber through a microlens to obtain a uniform 1-cm spot. The targeted artery was submerged in 0.9% saline and placed on a right-angled reflective mirror to achieve uniform irradiation, as previously described. The irradiated vessel segment was marked with periadventitial India ink.
# Harvest: Animals were sacrificed 14 days after surgery by an overdose of pentobarbital. Following sacrifice, the iliac artery was cannulated and the arterial system was flushed with saline and in situ perfusion-fixed at 150 mm Hg with 10% buffered formalin. The balloon-injured vessel segments and the contralateral carotid artery were excised and placed in fresh 10% buffered formalin. After embedding in paraffin, multiple 4 μm thick cross sections were obtained from the proximal, mid, and distal vessel segments.
# Vessel Histomorphometry: The histologic analyses of the arteries stained with hematoxylin and eosin consisted of both a descriptive and quantitative morphometric evaluation. The morphometry of the arteries was measured using a digitizing measurement system (Color CCB Camera Model 2222-1010, COHU Inc., San Diego, Calif.) and analyzed using the Scion Image software (Scion Corporation, Frederick, MY). Intimal area, medial area, and vessel diameter, as delineated by the external elastic lamina, were measured and calculated as previously described. In addition, adventitial cells were counted manually and are expressed as the number of cells per high power microscopic field (×400). Because the area of the adventitia varies within the different specimens, high power fields were used for all quantitative measurements of adventitial cell numbers and gene expression in the in situ hybridization experiments.
# [2] = system: balloon-injured rat common carotid artery (intimal hyperplasia); conditions: for Intimal Area: 690 nm
# Method: Male Sprague Dawley rats (Charles River Breeding Laboratories, Wilmington, Mass.), weighing 350-450 g, were anesthetized with intramuscular Ketamine (75 mg/kg), Xylazine (5 mg/kg), and Atropine (40 μg/kg). A midline neck incision was performed and the left carotid artery was exposed. After clamping the common carotid and the internal carotid artery, a 2 F (French Fogarty embolectomy catheter (Baxter Health Care Corporation, LIS Division, Irvine, Calif.) was introduced into the common carotid artery via the external carotid artery. The common carotid artery was subsequently injured by inflating the balloon with 0.2 ml air and gently passing and rotating the catheter three times.
# After balloon-injury, a 22 gauge polyethylene catheter was advanced through the external carotid arteriotomy into the distal portion of the common carotid artery and secured with a suture. The catheter was connected via three-way stopcock to a Statham transducer for synchronous pressure monitoring with a digital pressure manometer (HP 78205C, Hewlett Packard, Palo Alto, Calif.). The second generation photosensitizer benzoporphyrin-derivative monoacidic ring (BPD-MA Verteporfine®, Quadra Logic Technologies Inc., Vancouver, BC, Canada), provided as a liposomal preparation, was reconstituted in distilled water (2 mg/ml) and diluted in physiologic saline to a final concentration of 25 μg/ml. Once the arterial segment was isolated with microclamps under low ambient light, BPD was delivered at a pressure of 400 mm Hg for two minutes. […] Following aspiration of BPD from the arterial lumen, the artery was flushed with saline, the catheter was removed, and blood flow was restored to the internal carotid artery.
# Photodynamic Therapy. Fifteen minutes following delivery of the PS to the artery wall, the common carotid artery was externally irradiated as previously described. Briefly, an argon-pumped dye laser (Coherent Innova I 100 and Coherent CR 599, Coherent, Palo Alto, Calif.) was tuned to 690 nm light at an irradiance of 100 mW/cm^2, coupled to a 600 μm optical fiber, and using a 5-mm focal length lens magnified to obtain a uniform 2-cm spot. The targeted artery was submerged in physiologic saline, placed on a right-angled reflective mirror, and optically isolated with black, light-impervious tape.
# Experimental groups. The arteries were assigned to four different experimental groups: group 1 (n=6) and 2 (n=6) consisted of arteries which were pressurized with 0.5 μg/ml BPD and irradiated at a fluence of 50 and 100 J/cm^2 respectively. Group 3 (n=15) and 4 (n=4) were pressurized with 25 μg/ml BPD and irradiated at 100 or 200 J/cm^2 respectively.
# Harvest. The animals were sacrificed 24 hours and 2 weeks after PDT. The carotid artery was flushed with saline. They were either in situ perfusion-fixed at 80 mm Hg with 10% buffered formalin for light microscopy or rinsed with saline, embedded in Tissue tek O.C.T. compound® (Miles Inc. Elkhart, IN) and stored at −70° C. for immunohistochemistry.
# Histology. For each animal, the harvested artery was processed into three segments: proximal, mid, and distal. Multiple five-μm thick cross-sections were prepared from each specimen of the artery, and a representative from each segment was analyzed. All paraffin-embedded specimens were stained with hematoxylin and eosin. Arterial diameters, as delineated by the length of the internal elastic lamina (IEL circumference=πd), as well as intimal—and medial areas were measured using morphometric analysis with a camera lucida digitizing measurement system as previously described (Sigma Scan, Jandel Scientific, San Rafael, Calif.).
# [3] = system: basic fibroblast growth factor (bFGF); experiment: Immunohistochemistry for bFGF in arteries after BPD-PDT; format: in vivo, rat; conditions: 100 J/cm^2
# Excerpt: Harvest. […] The carotid artery was flushed with saline.
# Immunohistochemistry. Immunohistochemistry for basic fibroblast growth factor (bFGF) was undertaken to verify possible differential, dose-dependent effects on this growth factor which resides in the vascular wall and is known to play an important role in the early development of IH in rats. Monoclonal antibody to bFGF (Zymogenetics, Seattle, Wash.) was used to verify the presence of bFGF in the specimens using the two-layer indirect immunoperoxidase technique previously described. Briefly, the primary antibody (1:1000) was labeled by biotinylated horse anti-mouse immunoglobulin (Vector Laboratories, Burlingame, Calif.) and counterstained with nuclear fast red (Sigma Chemical Co., St. Louis, Mo.). Normal arteries were used as positive control, and arteries stained with a nonspecific primary antibody were used as negative controls to exclude nonspecific binding by the primary or secondary antibody.
# [4] = Observation of BPD-treated animals at harvest; format: in vivo, rat; conditions: rats after local delivery of BPD
# [5] = 15 minutes following delivery of BPD at 400 mm Hg for two minutes; previous studies; cited from earlier work
# intimal hyperplasia = conditions: for as long as 6 months after PDT; cited from earlier work
# [6] = group PDT: MB 250 μg/ml, 660 nm, 100 J/cm^2
# [7] = group PS: MB alone without irradiation
# [8] = group 1: 0.5 μg/ml BPD, 50 J/cm^2, 2 weeks
# [9] = group 2: 0.5 μg/ml BPD, 100 J/cm^2, 2 weeks
# [10] = group 3: 25 μg/ml BPD, 100 J/cm^2, 2 weeks
# [11] = group 4: 25 μg/ml BPD, 200 J/cm^2
compound,measurement,setting,value
"CN(C)c1ccc2nc3ccc(=[N+](C)C)cc-3sc2c1 [MB, methylene blue]","Versican mRNA in adventitia, % of positive pixels per high power field",versican mRNA,1.13%±0.39% and 1.11±0.37%
same,"Pro-collagen type I mRNA in adventitia, % of positive pixels per high power field",procollagen type I mRNA,4.13%±1.25%
same,Diameter,[1]; [6],0.95±0.04 mm
same,Histology of arteries,[1]; [6],"without evidence of microthrombi, inflammation, or intimal thickening; also recorded: no IH was seen"
same,Medial Area,[1]; [6],0.063±0.004 mm^2
same,Number of adventitial cells per high power field,"[1]; group PDT: MB 250 μg/ml, 660 nm, 100 J/cm^2, ×400",39±9.4
same,IH area,"[1]; group PDT: balloon injury, MB 250 μg/ml locally, 660 nm, 100 J/cm^2",0±0 mm^2
same,Histology of arteries,[1]; [7],no MB-induced modulation of the vascular injury healing response; also recorded: IH formation was demonstrated
same,Medial Area,[1]; [7],0.085±0.005 mm^2
same,IH area,"[1]; group PS: balloon injury, MB alone without irradiation",0.183±0.05 mm^2
same,Artery thrombosis,"MB study, at harvest (14 days)",No artery thrombosis
same,Signs of toxicity,"rat, in vivo",no signs of toxicity
benzoporphyrin-derivative monoacid ring [BPD],"Intimal hyperplasia, histology","[2]; group 1 / stage I: 0.5 μg/ml BPD, 50 J/cm^2, 2 weeks",significant IH
same,Diameter,[2]; [8],0.93 ± 0.02 mm
same,Medial Area,[2]; [8],0.18 ± 0.01 mm^2
same,Intimal Area,[2]; [8],0.18±0.03 mm^2
same,Diameter,[2]; [9],0.95 ± 0.06 mm
same,Medial Area,[2]; [9],0.18 ± 0.05 mm^2
same,Intimal Area,[2]; [9],0.14±0.03 mm^2
same,Diameter,[2]; [10],0.82 ± 0.04 mm
same,Medial Area,[2]; [10],0.10 ± 0.02† mm^2
same,Intimal Area,[2]; [10],0.01 ± 0.01*‡ mm^2
same,Diameter,[2]; [11],0.91 ± 0.03 mm
same,Medial Area,[2]; [11],0.17 ± 0.01 mm^2
same,bFGF staining of the vascular wall,"[3]; group 2 / stage II: 0.5 μg/ml BPD, 24 hours after PDT",evidence of bFGF in all layers of the vascular wall; also recorded: bFGF could still be detected in all layers of the vascular wall; also recorded: positive staining for bFGF in all layers of the vascular wall; also recorded: avid brown staining in all layers of the vascular wall
same,bFGF staining of the vascular wall,"[3]; group 3 / stage III: 25 μg/ml BPD, two weeks after PDT","evidence for bFGF in the flat cells, presumably endothelial cells, at the luminal surface; also recorded: positive bFGF staining only of endothelial cells in the intima and fibroblasts in the adventitia"
same,Signs of systemic phototoxicity,[4],no signs of systemic phototoxicity
same,Photosensitizer fluorescence in the arterial wall,[5],detected through the entire arterial wall
chloraluminum sulfonated phthalocyanin,Inhibition of IH after PDT,intimal hyperplasia,inhibition of IH without arterial degeneration
